As usually defined, the GI50 is the concentration at which growth is held to half of that of the control. A higher GI50 goes with less potent growth inhibition. What is called IC50 is the point on the concentration scale where inhibition reaches its midpoint.

One experiment concerns MDA-MB-231 cells. Kind of experiment: Inhibition of proliferation of triple-negative breast cancer cells, CellTiter-Glo. The format is cell-based. The note with it: Homo sapiens, 120 h; MDA-MB-231, cultured for 5 days. A digest of the protocol:
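MDA-MB-231 cells pre-cultured 24 h (5% CO2, 37 °C), then exposed to compound for 5 days at 12 three-fold dilutions, final 10 μM to 0.05 nM. Viability read by CellTiter-Glo luminescence after 10 min at 37 °C; growth inhibition calculated relative to untreated solvent-control cells.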

The next experiment has as its system SHP-77. As to the kind of experiment: Inhibition of proliferation of small cell lung cancer cells, CellTiter-Glo. In kind it is cell-based. The note with it: Homo sapiens, SHP77, 120 h; SHP-77, cultured for 5 days. A digest of the protocol:
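SHP-77 cells at 2,000–3,000 cells/well, cultured 24 h at 37° C, 5% CO2, then given 12 threefold compound dilutions, final 10 μM to 0.05 nM, for 5 days. Viability by CellTiter-Glo luminescence relative to solvent control. GI50 from concentration–response.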
For orientation: Cellular ATP, detected with luciferase, serves as a proxy for viable cell number.

Another experiment concerns the target T1, TTK (Homo sapiens, UniProt P33981).
T1 sequence (P33981 1-857): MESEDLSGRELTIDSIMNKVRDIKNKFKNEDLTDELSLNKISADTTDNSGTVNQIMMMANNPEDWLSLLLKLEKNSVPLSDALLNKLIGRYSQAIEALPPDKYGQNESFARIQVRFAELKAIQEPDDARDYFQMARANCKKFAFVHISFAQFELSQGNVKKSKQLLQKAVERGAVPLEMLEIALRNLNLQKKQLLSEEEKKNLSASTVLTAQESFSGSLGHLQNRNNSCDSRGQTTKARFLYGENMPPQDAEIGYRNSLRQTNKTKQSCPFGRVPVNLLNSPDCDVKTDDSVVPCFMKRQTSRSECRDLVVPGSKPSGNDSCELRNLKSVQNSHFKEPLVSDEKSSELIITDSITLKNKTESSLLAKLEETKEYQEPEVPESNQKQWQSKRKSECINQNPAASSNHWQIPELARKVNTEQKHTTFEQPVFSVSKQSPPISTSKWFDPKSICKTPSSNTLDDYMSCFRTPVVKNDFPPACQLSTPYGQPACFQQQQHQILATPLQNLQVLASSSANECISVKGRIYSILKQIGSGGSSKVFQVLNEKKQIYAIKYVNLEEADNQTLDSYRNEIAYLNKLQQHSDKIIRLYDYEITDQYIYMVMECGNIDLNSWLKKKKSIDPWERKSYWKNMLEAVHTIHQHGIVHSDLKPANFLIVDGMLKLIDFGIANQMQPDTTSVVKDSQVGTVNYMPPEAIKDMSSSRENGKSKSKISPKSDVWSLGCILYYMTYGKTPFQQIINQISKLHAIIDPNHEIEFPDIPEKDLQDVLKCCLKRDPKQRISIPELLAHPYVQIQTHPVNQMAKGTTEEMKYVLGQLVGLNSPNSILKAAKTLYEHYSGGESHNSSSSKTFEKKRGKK
Kind of experiment: TTK enzyme activity, ADP-Glo kinase assay. In kind it is biochemical. The arrangement: purchased SignalChem T20-10G. The following applies: purified human TTK, ATP 10 μM, 25° C., 2 hours. In a few lines: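 Purified human TTK (25 ng) incubated with 10 μM ATP and substrate (0.2 μg) for 2 h at 25 °C in Tris-HCl pH 7.4, MgCl2, BSA, DTT buffer. ADP formation read by ADP-Glo; inhibition calculated against untreated solvent control.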

The structures appear in SMILES notation.

As for `Cn1cc(-c2ccc(Nc3nc(NC4CCC(F)(F)C4)c4c(C#N)c[nH]c4n3)c3c2OCCO3)cn1` (stereo not drawn) [Example 159, 4-((3,3-difluorocyclopentyl)amino)-2-((8-(1-methyl-1H-pyrazol-4-yl)-2,3-dihydrobenzo[b][1,4]dioxin-5-yl)amino)-7H-pyrrolo[2,3-d] pyrimidine-5-carbonitrile], the GI50 in the experiment with MDA-MB-231 cells and in the experiment with SHP-77 was under 0.1 µM each time. At TTK, this compound yielded an IC50 of under 0.05 µM.

As for `COc1cc(Nc2nc(NC3CCOC(C)(C)C3)c3c(C#N)c[nH]c3n2)ccc1-c1ccnn1C` (stereo not drawn) [Example 162, 4-((2,2-dimethyltetrahydro-2H-pyran-4-yl)amino)-2-((3-methoxy-4-(1-methyl-1H-pyrazol-5-yl)phenyl)amino)-7H-pyrrolo[2,3-d] pyrimidine-5-carbonitrile], the GI50 with MDA-MB-231 cells and in the experiment on SHP-77 was under 0.1 µM throughout. At TTK, this compound returned an IC50 of under 0.05 µM.

For the compound `COc1cc(N2CCCCS2(=O)=O)ccc1Nc1nc(NC2CCOCC2)c2c(C#N)c[nH]c2n1` [Example 163, 2-((4-(1,1-dioxido-1,2-thiazinan-2-yl)-2-methoxyphenyl)amino)-4-((tetrahydro-2H-pyran-4-yl)amino)-7H-pyrrolo[2,3-d] pyrimidine-5-carbonitrile], the GI50 with MDA-MB-231 cells and in the experiment with SHP-77 was under 0.1 µM throughout. This compound also registered an IC50 against TTK of under 0.05 µM.

`N#Cc1c[nH]c2nc(Nc3ccc(N4CCCCS4(=O)=O)cc3)nc(NC3CCOCC3)c12` [Example 164, 2-((4-(1,1-dioxido-1,2-thiazinan-2-yl)phenyl)amino)-4-((tetrahydro-2H-pyran-4-yl)amino)-7H-pyrrolo[2,3-d] pyrimidine-5-carbonitrile]: the GI50 in the experiment on MDA-MB-231 cells and in the experiment on SHP-77 was under 0.1 µM throughout. This compound also returned an IC50 at TTK of under 0.05 µM.

Consider `COc1cc(N2CCCS2(=O)=O)ccc1Nc1nc(NC2CCOCC2)c2c(C#N)c[nH]c2n1` [Example 165, 2-((4-(1,1-dioxidoisothiazolidin-2-yl)-2-methoxyphenyl)amino)-4-((tetrahydro-2H-pyran-4-yl)amino)-7H-pyrrolo[2,3-d] pyrimidine-5-carbonitrile], for which the GI50 in the experiment with MDA-MB-231 cells and in the experiment with SHP-77 was under 0.1 µM in each case. For the same compound, the IC50 at TTK was under 0.05 µM.

Regarding `N#Cc1c[nH]c2nc(Nc3ccc(N4CCCS4(=O)=O)cc3)nc(NC3CCOCC3)c12` [Example 166, 2-((4-(1,1-dioxidoisothiazolidin-2-yl)phenyl)amino)-4-((tetrahydro-2H-pyran-4-yl)amino)-7H-pyrrolo[2,3-d] pyrimidine-5-carbonitrile], the GI50 with MDA-MB-231 cells and in the experiment with SHP-77 was under 0.1 µM each time. On TTK, this compound displayed an IC50 of under 0.05 µM.

Take `COC[C@@H](C)Nc1nc(Nc2ccc(-n3ccnc3C)cc2OC)nc2[nH]cc(C#N)c12` [Example 167, (R)-2-((2-methoxy-4-(2-methyl-1H-imidazol-1-yl)phenyl)amino)-4-((1-methoxypropan-2-yl)amino)-7H-pyrrolo[2,3-d] pyrimidine-5-carbonitrile]: the GI50 with MDA-MB-231 cells and in the experiment on SHP-77 was under 0.1 µM in each case. This compound also gave an IC50 on TTK of under 0.05 µM.

On to `COC[C@@H](C)Nc1nc(Nc2ccc(-c3ccnn3C)cc2OC)nc2[nH]cc(C#N)c12` [Example 168, (R)-2-((2-methoxy-4-(1-methyl-1H-pyrazol-5-yl)phenyl)amino)-4-((1-methoxypropan-2-yl)amino)-7H-pyrrolo[2,3-d] pyrimidine-5-carbonitrile], for which the GI50 in the experiment with MDA-MB-231 cells and with SHP-77 was under 0.1 µM each time. The same compound came in with an IC50 at TTK of under 0.05 µM.

Regarding `COC[C@@H](C)Nc1nc(Nc2ccc(-c3cnn(C)c3)c3c2OCCO3)nc2[nH]cc(C#N)c12` [Example 169], the GI50 in the experiment with MDA-MB-231 cells and in the experiment on SHP-77 was under 0.1 µM each time. On TTK, this compound gave an IC50 of under 0.05 µM.

In the case of `N#Cc1c[nH]c2nc(Nc3cccc4c3OCCO4)nc(NC3CCOCC3)c12` [Example 170, 2-((2,3-dihydrobenzo[b][1,4]dioxin-5-yl)amino)-4-((tetrahydro-2H-pyran-4-yl)amino)-7H-pyrrolo[2,3-d] pyrimidine-5-carbonitrile], the GI50 in the experiment with MDA-MB-231 cells and with SHP-77 was under 0.1 µM in each case. The IC50 against TTK is under 0.05 µM.

`CC1(C)CC(Nc2nc(Nc3cccc4c3OCCO4)nc3[nH]cc(C#N)c23)CCO1` (stereo not drawn) [Example 171]: the GI50 with MDA-MB-231 cells and in the experiment on SHP-77 was under 0.1 µM throughout. In addition, the IC50 against TTK was under 0.05 µM.

As to `Cn1nccc1-c1ccc(Nc2nc(NC3CCOC(C)(C)C3)c3c(C(F)(F)F)c[nH]c3n2)c2c1OCCO2` (stereo not drawn) [Example 172, N^4-(2,2-dimethyltetrahydro-2H-pyran-4-yl)-N^2-(8-(1-methyl-1H-pyrazol-5-yl)-2,3-dihydrobenzo[b][1,4]dioxin-5-yl)-5-(trifluoromethyl)-7H-pyrrolo[2,3-d] pyrimidine-2,4-diamine], the GI50 with MDA-MB-231 cells and with SHP-77 was under 0.1 µM each time. Further, the IC50 against TTK was under 0.05 µM.

Consider `N#Cc1c[nH]c2nc(Nc3ccc(N4CCCS4(=O)=O)c(F)c3)nc(NC3CCCC3)c12` [Example 173, 4-(cyclopentylamino)-2-((4-(1,1-dioxidoisothiazolidin-2-yl)-3-fluorophenyl)amino)-7H-pyrrolo[2,3-d] pyrimidine-5-carbonitrile], for which the 50% growth inhibitory concentration (GI50) was 0.1 to 1 µM with MDA-MB-231 cells and under 0.1 µM with SHP-77. For the same compound, the IC50 against TTK is under 0.05 µM.

In the case of `COc1cc(N2CCCS2(=O)=O)ccc1Nc1nc(NC2CCOCC2)c2c(C(F)(F)F)c[nH]c2n1` [Example 174, 2-(3-methoxy-4-((4-((tetrahydro-2H-pyran-4-yl)amino)-5-(trifluoromethyl)-7H-pyrrolo[2,3-d]pyrimidin-2-yl)amino)phenyl)isot hiazolidine 1,1-dioxide], the GI50 in the experiment on MDA-MB-231 cells and in the experiment with SHP-77 was under 0.1 µM throughout. At TTK, this compound displayed an IC50 of under 0.05 µM.

In the case of `COc1cc(N2CCCCS2(=O)=O)ccc1Nc1nc(NC2CCOCC2)c2c(C(F)(F)F)c[nH]c2n1` [Example 175, 2-(3-methoxy-4-((4-((tetrahydro-2H-pyran-4-yl)amino)-5-(trifluoromethyl)-7H-pyrrolo[2,3-d]pyrimidin-2-yl)amino)phenyl)-1,2-thiazinane 1,1-dioxide], the GI50 in the experiment with MDA-MB-231 cells and in the experiment with SHP-77 was under 0.1 µM throughout. The compound further showed an IC50 at TTK of under 0.05 µM.

For `COc1cc(N2CCCS2(=O)=O)ccc1Nc1nc(NC2CCCC2)c2c(C(F)(F)F)c[nH]c2n1` [Example 176, 2-(4-((4-(cyclopentylamino)-5-(trifluoromethyl)-7H-pyrrolo[2,3-d]pyrimidin-2-yl)amino)-3-methoxyphenyl) isothiazolidine 1,1-dioxide], the GI50 in the experiment with MDA-MB-231 cells and in the experiment with SHP-77 was 0.1 to 1 µM in each case. This compound also registered an IC50 at TTK of 0.05 to 0.2 µM.

As for `COc1cc(N2CCCCS2(=O)=O)ccc1Nc1nc(NC2CCCC2)c2c(C(F)(F)F)c[nH]c2n1` [Example 177, 2-(4-((4-(cyclopentylamino)-5-(trifluoromethyl)-7H-pyrrolo[2,3-d]pyrimidin-2-yl)amino)-3-methoxyphenyl)-1,2-thiazinane 1,1-dioxide], the GI50 in the experiment with MDA-MB-231 cells and in the experiment on SHP-77 was 0.1 to 1 µM throughout. Further, at TTK, the IC50 was 0.05 to 0.2 µM.

Values taken from US20230183243A1, “HETEROARYL DERIVATIVES AND PHARMACEUTICAL COMPOSITION COMPRISING SAME AS ACTIVE INGREDIENT” (VORONOI INC., priority 2019, published 2023).
